According to the supplement of paper PMC10627819:

Assays:
[1] = tested on: S. aureus Newman; assay: Bliss interaction score (quartile over a dose matrix) (fitness difference); higher = more antagonism (negative = synergy)
How it was run: (§1)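 Fitness here means normalised growth, inferred for single drugs from the combination data. Growth was OD595 at entry into stationary phase, divided by the plate's robust no-drug mean and capped at 1. The Bliss score is observed minus expected fitness, with the expectation being the product, and its quartiles span technical, biological and donor/recipient replicates.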

[2] = tested on: S. aureus DSM 20231; assay: as above
How it was run: as §1

[3] = tested on: B. subtilis 168; assay: as above
How it was run: as §1

[4] = tested on: S. pneumoniae D39V; assay: as above
How it was run: as §1

[5] = tested on: S. pneumoniae D39V; assay: fitness (endpoint OD595 vs no drug) (fraction); higher = more growth
How it was run: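 Fitness expresses the optical density reached at the stationary-phase transition as a fraction of the robust mean of no-drug control wells. It is capped at 1. Measurements were OD595 every 30 min for 14 h at 37 °C after inoculation of 384-well plates at OD595 0.01 (30 µl, or 55 µl for S. pneumoniae), minus the first reading.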
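Throughout, for Bliss interaction score (quartile over a dose matrix): first quartile when negative (synergy) and third quartile when positive (antagonism).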
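Throughout, for fitness (endpoint OD595 vs no drug): OD595 on entry to stationary phase over no-drug wells; at most 1.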

`C[C@@H](O)[C@H]1C(=O)N2C(C(=O)O)=C(SCCNC=N)C[C@H]12` [Imipenem] + CCC(C)C1C(=O)NC(=C)C(=O)NC(C(=O)NC(CSCC(C(=O)N1)NC(=O)/C(=C/C)/NC(=O)C(C(C)CC)N)C(=O)NC2C(SCC(NC(=O)CNC(=O)C3CCCN3C2=O)C(=O)NC(CCCCN)C(=O)NC4C(SCC(NC(=O)CNC(=O)C(NC(=O)C(NC(=O)C(NC(=O)CNC4=O)C)CC(C)C)CCSC)C(=O)NC(CC(=O)N)C(=O)NC(CCSC)C(=O)NC(CCCCN)C(=O)NC5C(SCC6C(=O)NC(C(=O)NC(CSC(C(C(=O)N6)NC(=O)C(NC5=O)C)C)C(=O)NC(CO)C(=O)NC(C(C)CC)C(=O)NC(CC7=CN=CN7)C(=O)NC(C(C)C)C(=O)NC(=C)C(=O)NC(CCCCN)C(=O)O)CC8=CN=CN8)C)C)C)CC(C)C [Nisin] gave a Bliss interaction score ([1]; main component drawn) of -0.0142, a Bliss interaction score ([2]; main component drawn) of 0.0486 and a Bliss interaction score ([3]; main component drawn) of -0.0431. The Bliss interaction score ([4]; main component drawn) was -0.0573, the fitness ([5]; first compound 0.005 µg/mL, partner 0.4275 µg/mL, main component drawn) was at least 1 and the fitness ([5]; first compound 0.005 µg/mL, partner 0.855 µg/mL, main component drawn) was 0.992. For the same compound, the fitness ([5]; first compound 0.005 µg/mL, partner 1.71 µg/mL, main component drawn) was 0.133, the fitness ([5]; first compound 0.0065 µg/mL, partner 1.6 µg/mL, main component drawn) was 0 and the fitness ([5]; first compound 0.0065 µg/mL, partner 3.2 µg/mL, main component drawn) was 0. The fitness ([5]; first compound 0.0065 µg/mL, partner 6.4 µg/mL, main component drawn) was 0, the fitness ([5]; first compound 0.01 µg/mL, partner 0.4275 µg/mL, main component drawn) was 0.988 and the fitness ([5]; first compound 0.01 µg/mL, partner 0.855 µg/mL, main component drawn) was 0.993. For the same compound, the fitness ([5]; first compound 0.01 µg/mL, partner 1.71 µg/mL, main component drawn) was 0.0676, the fitness ([5]; first compound 0.013 µg/mL, partner 1.6 µg/mL, main component drawn) was 0.193 and the fitness ([5]; first compound 0.013 µg/mL, partner 3.2 µg/mL, main component drawn) was 0.0047. The fitness ([5]; first compound 0.013 µg/mL, partner 6.4 µg/mL, main component drawn) was 0.0067, the fitness ([5]; first compound 0.02 µg/mL, partner 0.4275 µg/mL, main component drawn) was at least 1 and the fitness ([5]; first compound 0.02 µg/mL, partner 0.855 µg/mL, main component drawn) was at least 1. It also gave a fitness ([5]; first compound 0.02 µg/mL, partner 1.71 µg/mL, main component drawn) of 0.0904, a fitness ([5]; first compound 0.026 µg/mL, partner 1.6 µg/mL, main component drawn) of 0.448 and a fitness ([5]; first compound 0.026 µg/mL, partner 3.2 µg/mL, main component drawn) of 0.0017. It also gave a fitness ([5]; first compound 0.026 µg/mL, partner 6.4 µg/mL, main component drawn) of 0.

For `C[C@@H](O)[C@H]1C(=O)N2C(C(=O)O)=C(SCCNC=N)C[C@H]12` [Imipenem] + CCC[C@@H]1C[C@@H](C(=O)N[C@@H]([C@H]2O[C@H](SC)[C@H](O)[C@@H](O)[C@H]2O)[C@@H](C)O)N(C)C1 [Lincomycin], the Bliss interaction score [1] was 0.0416, the Bliss interaction score [2] was 0.09 and the Bliss interaction score [3] was 0.163. For the same compound, the Bliss interaction score [4] was -0.0603, the fitness ([5]; first compound 0.005 µg/mL, partner 0.215 µg/mL) was 0.829 and the fitness ([5]; first compound 0.005 µg/mL, partner 0.43 µg/mL) was 0.719. For the same compound, the fitness ([5]; first compound 0.005 µg/mL, partner 0.86 µg/mL) was 0.474, the fitness ([5]; first compound 0.0065 µg/mL, partner 0.2 µg/mL) was 0.68 and the fitness ([5]; first compound 0.0065 µg/mL, partner 0.4 µg/mL) was 0.563. For the same compound, the fitness ([5]; first compound 0.0065 µg/mL, partner 0.8 µg/mL) was 0.0187, the fitness ([5]; first compound 0.01 µg/mL, partner 0.215 µg/mL) was 0.846 and the fitness ([5]; first compound 0.01 µg/mL, partner 0.43 µg/mL) was 0.722. For the same compound, the fitness ([5]; first compound 0.01 µg/mL, partner 0.86 µg/mL) was 0.451, the fitness ([5]; first compound 0.013 µg/mL, partner 0.2 µg/mL) was 0.738 and the fitness ([5]; first compound 0.013 µg/mL, partner 0.4 µg/mL) was 0.626. It also gave a fitness ([5]; first compound 0.013 µg/mL, partner 0.8 µg/mL) of 0.0703, a fitness ([5]; first compound 0.02 µg/mL, partner 0.215 µg/mL) of 0.814 and a fitness ([5]; first compound 0.02 µg/mL, partner 0.43 µg/mL) of 0.71. For the same compound, the fitness ([5]; first compound 0.02 µg/mL, partner 0.86 µg/mL) was 0.453, the fitness ([5]; first compound 0.026 µg/mL, partner 0.2 µg/mL) was 0.693 and the fitness ([5]; first compound 0.026 µg/mL, partner 0.4 µg/mL) was 0.596. It also gave a fitness ([5]; first compound 0.026 µg/mL, partner 0.8 µg/mL) of 0.0319.

With `C[C@@H](O)[C@H]1C(=O)N2C(C(=O)O)=C(SCCNC=N)C[C@H]12` [Imipenem] + CCN(CC)CCOC(=O)c1ccc(N)cc1 [Procaine] the Bliss interaction score [1] was 0.0422, the Bliss interaction score [2] was 0.0667 and the Bliss interaction score [3] was 0.0429. It also gave a Bliss interaction score [4] of 0.0493, a fitness ([5]; first compound 0.005 µg/mL, partner 85.5 µg/mL, one replicate) of 0.932 and a fitness ([5]; first compound 0.005 µg/mL, partner 171 µg/mL, one replicate) of at least 1. The fitness ([5]; first compound 0.005 µg/mL, partner 342 µg/mL, one replicate) was 0.923, the fitness ([5]; first compound 0.0065 µg/mL, partner 85.5 µg/mL) was 0.977 and the fitness ([5]; first compound 0.0065 µg/mL, partner 171 µg/mL) was 0.957. For the same compound, the fitness ([5]; first compound 0.0065 µg/mL, partner 342 µg/mL) was 0.957, the fitness ([5]; first compound 0.01 µg/mL, partner 85.5 µg/mL, one replicate) was 0.963 and the fitness ([5]; first compound 0.01 µg/mL, partner 171 µg/mL, one replicate) was 0.994. For the same compound, the fitness ([5]; first compound 0.01 µg/mL, partner 342 µg/mL, one replicate) was 0.931, the fitness ([5]; first compound 0.013 µg/mL, partner 85.5 µg/mL) was 0.978 and the fitness ([5]; first compound 0.013 µg/mL, partner 171 µg/mL) was 0.963. The fitness ([5]; first compound 0.013 µg/mL, partner 342 µg/mL) was 0.912, the fitness ([5]; first compound 0.02 µg/mL, partner 85.5 µg/mL, one replicate) was 0.985 and the fitness ([5]; first compound 0.02 µg/mL, partner 171 µg/mL, one replicate) was at least 1. It also gave a fitness ([5]; first compound 0.02 µg/mL, partner 342 µg/mL, one replicate) of 0.883, a fitness ([5]; first compound 0.026 µg/mL, partner 85.5 µg/mL) of 0.888 and a fitness ([5]; first compound 0.026 µg/mL, partner 171 µg/mL) of 0.917. It also gave a fitness ([5]; first compound 0.026 µg/mL, partner 342 µg/mL) of 0.841.

Work on `C[C@@H](O)[C@H]1C(=O)N2C(C(=O)O)=C(SCCNC=N)C[C@H]12` [Imipenem] + CN1C2=CC=CC=C2N=C3C1=CC=CC3=O [Pyocyanin] yielded a Bliss interaction score [1] of 0.0283, a Bliss interaction score [2] of -0.0657 and a Bliss interaction score [3] of 0.0885. The Bliss interaction score [4] was 0.0503, the fitness ([5]; first compound 0.005 µg/mL, partner 0.325 µg/mL, one replicate) was 0.945 and the fitness ([5]; first compound 0.005 µg/mL, partner 0.65 µg/mL, one replicate) was 0.979. It also gave a fitness ([5]; first compound 0.0065 µg/mL, partner 0.325 µg/mL) of 0.975, a fitness ([5]; first compound 0.0065 µg/mL, partner 0.65 µg/mL) of 0.936 and a fitness ([5]; first compound 0.0065 µg/mL, partner 1.3 µg/mL) of 0.591. It also gave a fitness ([5]; first compound 0.01 µg/mL, partner 0.325 µg/mL, one replicate) of 0.947, a fitness ([5]; first compound 0.01 µg/mL, partner 0.65 µg/mL, one replicate) of 0.959 and a fitness ([5]; first compound 0.013 µg/mL, partner 0.325 µg/mL) of at least 1. The fitness ([5]; first compound 0.013 µg/mL, partner 0.65 µg/mL) was 0.929, the fitness ([5]; first compound 0.013 µg/mL, partner 1.3 µg/mL) was 0.698 and the fitness ([5]; first compound 0.02 µg/mL, partner 0.325 µg/mL, one replicate) was at least 1. It also gave a fitness ([5]; first compound 0.02 µg/mL, partner 0.65 µg/mL, one replicate) of 0.957, a fitness ([5]; first compound 0.026 µg/mL, partner 0.325 µg/mL) of 0.983 and a fitness ([5]; first compound 0.026 µg/mL, partner 0.65 µg/mL) of 0.892. It also gave a fitness ([5]; first compound 0.026 µg/mL, partner 1.3 µg/mL) of 0.657.

In the case of `C[C@@H](O)[C@H]1C(=O)N2C(C(=O)O)=C(SCCNC=N)C[C@H]12` [Imipenem] + CN(C)C(=O)C(CCN1CCC(O)(c2ccc(Cl)cc2)CC1)(c1ccccc1)c1ccccc1 [Loperamide], the Bliss interaction score [1] is reported as 0.0304, the Bliss interaction score [2] is reported as 0.0662 and the Bliss interaction score [3] is reported as -0.203. The Bliss interaction score [4] was 0.0901, the fitness ([5]; first compound 0.005 µg/mL, partner 17.14 µg/mL) was 0.926 and the fitness ([5]; first compound 0.005 µg/mL, partner 34.28 µg/mL) was 0.907. It also gave a fitness ([5]; first compound 0.005 µg/mL, partner 68.57 µg/mL, one replicate) of 0.935, a fitness ([5]; first compound 0.0065 µg/mL, partner 20 µg/mL) of at least 1 and a fitness ([5]; first compound 0.0065 µg/mL, partner 40 µg/mL) of at least 1. It also gave a fitness ([5]; first compound 0.0065 µg/mL, partner 80 µg/mL) of 0.582, a fitness ([5]; first compound 0.01 µg/mL, partner 17.14 µg/mL) of 0.937 and a fitness ([5]; first compound 0.01 µg/mL, partner 34.28 µg/mL) of 0.947. The fitness ([5]; first compound 0.01 µg/mL, partner 68.57 µg/mL, one replicate) was 0.93, the fitness ([5]; first compound 0.013 µg/mL, partner 20 µg/mL) was at least 1 and the fitness ([5]; first compound 0.013 µg/mL, partner 40 µg/mL) was at least 1. The fitness ([5]; first compound 0.013 µg/mL, partner 80 µg/mL) was 0.582, the fitness ([5]; first compound 0.02 µg/mL, partner 17.14 µg/mL) was 0.952 and the fitness ([5]; first compound 0.02 µg/mL, partner 34.28 µg/mL) was 0.942. It also gave a fitness ([5]; first compound 0.02 µg/mL, partner 68.57 µg/mL, one replicate) of 0.94, a fitness ([5]; first compound 0.026 µg/mL, partner 20 µg/mL) of 0.986 and a fitness ([5]; first compound 0.026 µg/mL, partner 40 µg/mL) of 0.988. The fitness ([5]; first compound 0.026 µg/mL, partner 80 µg/mL) was 0.625.
